Experimental data reported in US20240299553A1, “INDOCARBOCYANINE LIPID DERIVATIVES FOR IN VIVO CARGO DELIVERY” (priority 2021, published 2024).
pEC50: −log10 of the molar value.

Key:
[1] = system: 4T1 syngeneic orthotopic breast carcinoma; experiment: Confocal microscopy of 4T1 tumor slices after i.v. injection of dual-labeled liposomes; type: in vivo, mice; conditions: for extravasation and migration area in tumor: 24 h after i.v., 290 nm EPC/DSPE-PEG2000 liposomes with 0.2% DiD and Cy3-DSPE
Method: Lipids at the following molar ratios: HSPC/Chol/DSPE-PEG2000 (57/38/5) or EPC/DSPE-PEG2000 (95:5) with addition of 0.2% ICL and/or 0.2% FPL were mixed and dried under a nitrogen stream. The dry lipid cake was resuspended in PBS for a total lipid concentration of 20 mM, then incubated at 60° C. for 30 minutes. The solution was then vortexed for 2 minutes and bath sonicated. Liposomes were extruded by a syringe extruder (Avestin, Ottawa, Canada) through Whatman Nucleopore Track-Etch Membranes (200 nm pore size, 15 times). HSPC-based liposomes were extruded at 60° C., EPC-based liposomes were extruded at room temperature. Size and zeta potential were measured at room temperature in the presence of 1% phosphate-buffered saline using Zetasizer Nano (Malvern, UK). Liposomes were stored at 4° C. at a final concentration of 10 mM (total lipid) for a maximum period of 8 weeks before use.
4T1 cell line was purchased from the ATCC and verified using a sequencing core. GL261 cells were obtained from the National Cancer Institute (NCI), and CT2A cells were a gift from Dr. Tom Seyfried (Boston College). LY2 cells were from Dr. Sana Karam, University of Colorado Anschutz Medical campus. Cells were grown at 37° C. in RPMI 1640 medium containing 10% heat-inactivated fetal bovine serum, 10 mM HEPES, 100 U/ml penicillin, and […] streptomycin (all from Corning Inc. New York, NY, USA). BALB/c mice were bred in-house. Mice of 8-10 weeks of age (females) were implanted with 0.5×10^6 cells into the mammary fat pad (4T1) or subcutaneously in the jaw region (LY2) and used for experiments 1 week later when tumors reached ˜200-300 mm^3. For brain tumors, C57BL/6 mice (6-8 weeks old) were implanted with a total 1×10^5 GL261 or CT-2A cells per animal using an established protocol. To determine the distribution of liposomes in tumors and organs, liposomes were injected with 50 μl of 10 mM total lipid intravenously. Blood was collected via periorbital plexus using heparin glass capillaries, and the plasma was separated by centrifugation at 500 g for 5 min. In some experiments, mice were preinjected before dissection with 50 μl of FITC-tomato lectin (1 mg/ml) and 50 μl Hoechst 33324 (2 mg/ml) to visualize the vasculature and the nuclei. Mice were sacrificed with carbon dioxide, followed by cardiac perfusion with PBS through the left ventricle.
Nikon Eclipse AR1HD inverted confocal microscope with 405 nm, 488 nm, 561 nm, and 640 nm excitation lasers and corresponding emission filters was used. For high magnification imaging, liposomes were diluted 1:200 in PBS, mixed with glycerol at 1:1 ratio and 2 μl were placed on slide. For liposomes in plasma, the samples were diluted 1:20 and mixed with glycerol. The preparations in glycerol were spread under a coverslip and imaged under Apo60 or Apo100 Oil objective at 2048×2048 resolution. For tumor imaging, tumors or whole brains were frozen on dry ice and sliced with a blade into 1-2 mm thick slices. The slices were placed on a glass slide and imaged using Plan Apo 10 objective. Channels' voltage and laser intensity were adjusted using the dual labeled liposomes placed on a slide and imaged under the same magnification. These parameters were calibrated before each imaging session using the batch of liposomes used in that experiment. For quantification, multiple random image areas from different slices of the tumor (both periphery and center) were acquired at 512×512 resolution. Images were quantified with Fiji using customized macros. Briefly, 8-bit gray image stacks were thresholded for fluorescence in the Cy3 and Cy5 channels and the percentages of binary (positive) areas were calculated using the “Measure” function. All the data were plotted with Prism version 8.3.0 (GraphPad, San Diego, CA).

[2] = system: syngeneic intracranial GL261 glioma; experiment: Confocal microscopy of brain slices of GL261 glioma mice after i.v. dual-labeled liposomes; type: in vivo; conditions: 48 h post-injection, EPC/DSPE-PEG2000 liposomes, 0.2% DiI and 0.2% Cy5-DSPE
Method: (§1) 4T1 cell line was purchased from the ATCC and verified using a sequencing core. GL261 cells were obtained from the National Cancer Institute (NCI), and CT2A cells were a gift from Dr. Tom Seyfried (Boston College). LY2 cells were from Dr. Sana Karam, University of Colorado Anschutz Medical campus. Cells were grown at 37° C. in RPMI 1640 medium containing 10% heat-inactivated fetal bovine serum, 10 mM HEPES, 100 U/ml penicillin, and […] streptomycin (all from Corning Inc. New York, NY, USA). BALB/c mice were bred in-house. Mice of 8-10 weeks of age (females) were implanted with 0.5×10^6 cells into the mammary fat pad (4T1) or subcutaneously in the jaw region (LY2) and used for experiments 1 week later when tumors reached ˜200-300 mm^3. […]
(§2) Nikon Eclipse AR1HD inverted confocal microscope with 405 nm, 488 nm, 561 nm, and 640 nm excitation lasers and corresponding emission filters was used. […] For quantification, multiple random image areas from different slices of the tumor (both periphery and center) were acquired at 512×512 resolution. Images were quantified with Fiji using customized macros. Briefly, 8-bit gray image stacks were thresholded for fluorescence in the Cy3 and Cy5 channels and the percentages of binary (positive) areas were calculated using the “Measure” function. […]

LY2 head and neck cancer = experiment: Confocal microscopy of LY2 tumors after injection of dual-labeled liposomes; type: in vivo, mice; conditions: 24 h; DiI/Cy5-DSPE labeled EPC/DSPE-PEG2000 liposomes
Method: as §1, §2

[3] = Lipid extraction of tumors and organs, dye biodistribution; type: in vivo, mice; conditions: 48 h post-injection
Method: For extraction using a modified Bligh-Dyer method, 50-100 mg tissue was homogenized as described above, 10 parts of chloroform/methanol (2:1) were added to the homogenate (considering that tissue weight is 1 part), and the samples were mixed at 1400 rpm for 2 h at room temperature on Eppendorf Thermomixer. The tubes were centrifuged at 500 g for 10 min. The organic phase (bottom, approximately 80% of the added amount) was carefully collected, dotted on a PVDF membrane and scanned for DiI and Cy5 fluorescence as described above. Different dilutions of liposomes (standard curve) were scanned together with the samples. The percentage of the injected DiI and Cy5 in the extract was calculated from the standard curve and divided by tissue weight. The fluorescence of control non-injected organs was subtracted from that of injected organs. For TLC analysis, the mobile phase consisted of chloroform: methanol (9:1) with 1% trifluoroacetic acid and the samples were run on TLC Silica Gel 60 F254 plates (EMD Millipore).

[4] = Skin extravasation and accumulation of liposomal lipid dyes; type: in vivo, Mouse
Method: FIG. 40B: Liposomes were formulated with Cy3-DSPE, LR-DOPE or DiI. FIG. 40C: Mouse skin was excised 4 days after injection and the microscopic areas of accumulation and extravasation were counted. […] FIG. 40D-40F: circulation and skin accumulation of DiD and Cy5-DSPE liposomes (n=3 per group, 9 different skin areas pooled). FIG. 40G-40H: mixed DiI/Cy5-DSPE liposomes colocalize in skin blood vessels at 1 h, and colocalize in plasma (1000× magnification zoomed). Arrows in FIG. 40G point to DiI extravasation. […] Similar results were observed when mixed Cy3-DSPE/DiD liposomes were used (lower panel).

[5] = Plasma fluorescence elimination profile after liposome injection; type: in vivo, mice; conditions: 24 h post-injection; DiI/Cy5-DSPE liposomes
Method: as §1, with “mm^3. For brain tumors, C57BL/6 mice (6-8 weeks old) were implanted with a total 1×10^5 GL261 or CT-2A cells per animal using an established protocol.” for “mm^3.”
Tumors and livers were placed in a 24-well plate and scanned as described above. […] Mean fluorescence was determined from 8-bit TIFF images using Fiji software by drawing a region of interest around the tumors and using the “Measure” function to determine mean gray values. […] For plasma fluorescence profile, plasma collected at different time points was serially diluted, dotted on a nitrocellulose membrane, scanned as above, and the mean fluorescence of dots was plotted versus time with Prism.

[6] = Ex vivo fluorescence imaging of excised tumors and livers; type: in vivo, mice
Method: Tumors and livers were placed in a 24-well plate and scanned as described above. To match the intensity of the channels, the same liposomes used for injection were diluted (1:10), dotted on a 0.45 μm nitrocellulose membrane, and scanned together with the samples. Mean fluorescence was determined from 8-bit TIFF images using Fiji software by drawing a region of interest around the tumors and using the “Measure” function to determine mean gray values. Such measurement is independent of the organ cross-section area. The mean gray values of non-injected tumors were subtracted from the measurements. For plasma fluorescence profile, plasma collected at different time points was serially diluted, dotted on a nitrocellulose membrane, scanned as above, and the mean fluorescence of dots was plotted versus time with Prism.

MOLM13 leukemic cells = experiment: MTT cytotoxicity assay in MOLM13 leukemic cells; type: cell-based; conditions: Homo sapiens, MOLM-13, 48 h
human glioma cell lines = conditions: cited from earlier work

In the case of `CCCCCCCCCCCCCCCCCC(=O)OC[C@H](COP(=O)(O)OCCNC(=O)CCCCCN1/C(=C/C=C/C2=[N+](C)c3ccccc3C2(C)C)C(C)(C)c2ccccc21)OC(=O)CCCCCCCCCCCCCCCCC.O=C[O-]` [Cy3-DSPE], the “extravasation and migration area in tumor” value ([1]; p-value<0.0001) was “mostly stayed in blood vessels”.

For `CCCCCCCCCCCCCCCCCCN1C(=CC=CC=CC2=[N+](CCCCCCCCCCCCCCCCCC)c3ccccc3C2(C)C)C(C)(C)c2ccccc21.O=S(=O)([O-])c1ccc(Cl)cc1` [DiD], the “extravasation and migration area in tumor” value ([1]; p-value<0.0001) was “extravasated and migrated over a significantly larger area than Cy3-DSPE”.

For `CCCCCCCCCCCCCCCCCCN1C(=CC=CC2=[N+](CCCCCCCCCCCCCCCCCC)c3ccccc3C2(C)C)C(C)(C)c2ccccc21.[O-][Cl+3]([O-])([O-])[O-]` [DiI], the “accumulation and spreading in glioma” value [2] was “accumulated and spread in tumors much more efficiently than Cy5-DSPE”, the “fluorescence positive area in tumor images” value ([1]; 4 h, 24 h and 48 h post-injection, EPC/DSPE-PEG2000 DiI/Cy5-DSPE liposomes, p-value<0.0001) was “significantly larger area than Cy5-DSPE” and the “extravasation and spreading in tumor” value ([1]; 24 h, 150 nm HSPC/Chol/DSPE-PEG2000 liposomes (DOXIL formula), 0.2% DiI and Cy5-DSPE) was “more efficient extravasation and spreading”. For the same molecule, the “extravasation and distribution in tumor” value ([1]; 24 h post-injection, EPC/DSPE-PEG2000 liposomes, 0.2 mole % DiI and Cy5-DSPE, i.v.) was “efficiently extravasated and migrated throughout the tumor”, the extravasation in tumor (LY2 head and neck cancer) was “much better extravasation” and the “tissues with the highest dye amount” value [3] was “highest in the tumor and liver”. For the same molecule, the “dye amount in tumor and organ extracts over time” value ([3]; tumors, livers, spleens, kidneys, 1 h, 24 h) was “increase in all organs except the kidney over 48 h”, the “extravasation and accumulation in skin cells” value ([4]; mixed DiI/Cy5-DSPE liposomes, 4 days later) was “only DiI extravasated and accumulated in skin cells” and the skin extravasation ([4]; skin excised 4 days after injection, liposomes with Cy3-DSPE, LR-DOPE or DiI) was “more efficient extravasation than phospholipid dyes”. For the same molecule, the “dye cleared from the circulation” value [5] was “approximately 80%”, the “fluorescence in liver images over time” value ([6]; livers, later time points versus 1 h) was “increase” and the “fluorescence in tumor images over time” value ([6]; tumors, 1 h, 24 h, 48 h post-injection) was “continued to increase at 24 h and 48 h”.

For `Nc1ccn([C@@H]2O[C@H](CO)[C@@H](O)[C@@H]2O)c(=O)n1` [cytarabine], the pEC50 (MOLM13 leukemic cells) was 7.19.

In the case of `COc1cccc2c1C(=O)c1c(O)c3c(c(O)c1C2=O)C[C@@](O)(C(=O)CO)C[C@@H]3O[C@H]1C[C@H](N)[C@H](O)[C@H](C)O1` [doxorubicin], the “toxicity to glioma cells (IC50)” value (human glioma cell lines) is listed as “nanomolar range”.

In the case of `CC(=O)O[C@H]1C(=O)[C@@]2(C)[C@H]([C@H](OC(=O)c3ccccc3)[C@]3(O)C[C@H](OC(=O)[C@H](O)[C@@H](NC(=O)c4ccccc4)c4ccccc4)C(C)=C1C3(C)C)[C@]1(OC(C)=O)CO[C@@H]1C[C@@H]2O` [paclitaxel], the “toxicity to glioma cells (IC50)” value (human glioma cell lines) is given as “nanomolar range”.
